In this assay the target is T1, human neutrophil elastase (HNE) (Homo sapiens, UniProt P08246).
T1 construct: purchased Sigma E8140
T1 sequence (P08246 30-247 limits assumed): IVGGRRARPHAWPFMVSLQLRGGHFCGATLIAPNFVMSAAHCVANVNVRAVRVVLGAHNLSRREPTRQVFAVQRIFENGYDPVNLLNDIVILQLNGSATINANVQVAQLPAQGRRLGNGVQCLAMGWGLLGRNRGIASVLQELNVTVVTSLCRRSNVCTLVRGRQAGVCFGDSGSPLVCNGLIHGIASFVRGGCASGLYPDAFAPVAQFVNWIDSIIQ
Briefly: HNE enzyme activity assay (fluorogenic peptide substrate MeOSuc-Ala-Ala-Pro-Val-AMC). It is filed as biochemical. The conditions noted are these: human leukocyte elastase 0.00072 U/mL, substrate 100 μM, 25° C., 30 minutes, pH 7.5; at least two separate experiments; read-out: FINE inhibition (HNE enzyme inhibition, IC50 values).

On to `Cc1c(-c2ccnn2-c2ccc(C#N)cc2)n(C(=O)NCC2CCN(C)CC2)c(=O)n1-c1cccc(C(F)(F)F)c1` [Example 54, 5-[2-(4-Cyano-phenyl)-2H-pyrazol-3-yl]-4-methyl-2-oxo-3-(3-trifluoromethyl-phenyl)-2,3-dihydro-imidazole-1-carboxylic acid (1-methyl-piperidin-4-ylmethyl)-amide], for which the IC50 was in the range of 1 to 10 nM.
With `Cc1c(-c2ccnn2-c2ccc(C#N)cc2S(C)(=O)=O)[nH]c(=O)n1-c1cccc(C(F)(F)F)c1` [Example 55, 3-Methanesulfonyl-4-{5-[5-methyl-2-oxo-1-(3-trifluoromethyl-phenyl)-2,3-dihydro-1H-imidazol-4-yl]-pyrazol-1-yl}-benzonitrile] the figure was above 50 nM; with `Cc1c(-c2ccnn2-c2ccc(C#N)cc2Br)n(C(=O)NC2CCCC2)c(=O)n1-c1cccc(C(F)(F)F)c1` [Example 56, 5-[2-(2-Bromo-4-cyano-phenyl)-2H-pyrazol-3-yl]-4-methyl-2-oxo-3-(3-trifluoromethyl-phenyl)-2,3-dihydro-imidazole-1-carboxylic acid cyclopentylamide], 1 to 10 nM; with `Cc1c(-c2ccn(-c3ccc(C#N)cc3Br)n2)n(C(=O)NC2CCCC2)c(=O)n1-c1cccc(C(F)(F)F)c1` [Example 57, 5-[1-(2-Bromo-4-cyano-phenyl)-1H-pyrazol-3-yl]-4-methyl-2-oxo-3-(3-trifluoromethyl-phenyl)-2,3-dihydro-imidazole-1-carboxylic acid cyclopentylamide], 10 to 50 nM.
With `Cc1c(-c2ccnn2-c2ccc(C#N)cc2F)n(C(=O)NC2CCCC2)c(=O)n1-c1cccc(C(F)(F)F)c1` [Example 58, 5-[2-(4-Cyano-2-fluoro-phenyl)-2H-pyrazol-3-yl]-4-methyl-2-oxo-3-(3-trifluoromethyl-phenyl)-2,3-dihydro-imidazole-1-carboxylic acid cyclopentylamide] the figure was below 1 nM.
Turning to `Cc1c(-c2nccn2-c2ccc(C#N)cc2)[nH]c(=O)n1-c1cccc(C(F)(F)F)c1` [Example 59, 4-[5′-Methyl-2′-oxo-1′-(3-trifluoromethyl-phenyl)-2′,3′-dihydro-1′H-[2,4]biimidazolyl-1-yl]-benzonitrile], the IC50 is 10 to 50 nM.
Regarding `Cc1c(-c2nccn2-c2ccc(C#N)cc2)n(C(=O)NC2CCCC2)c(=O)n1-c1cccc(C(F)(F)F)c1` [Example 60, 1-(4-Cyano-phenyl)-5′-methyl-2′-oxo-1′-(3-trifluoromethyl-phenyl)-1′,2′-dihydro-1H-[2,4]biimidazolyl-3′-carboxylic acid cyclopentylamide], the IC50 was below 1 nM.
With `Cc1c(-c2nccn2-c2ccc(C#N)cc2)n(C(=O)NC2CCC2)c(=O)n1-c1cccc(C(F)(F)F)c1` [Example 61, 1-(4-Cyano-phenyl)-5′-methyl-2′-oxo-1′-(3-trifluoromethyl-phenyl)-1′,2′-dihydro-1H-[2,4′]biimidazolyl-3′-carboxylic acid cyclobutylamide], the IC50 is below 1 nM.
With `Cc1c(-c2nccn2-c2ccc(C#N)cc2)n(C(=O)NCc2ccc(S(C)(=O)=O)cc2)c(=O)n1-c1cccc(C(F)(F)F)c1` [Example 62, 1-(4-Cyano-phenyl)-5′-methyl-2′-oxo-1′-(3-trifluoromethyl-phenyl)-1′,2′-dihydro-1H-[2,4′]biimidazolyl-3′-carboxylic acid 4-methanesulfonyl-benzylamide], the IC50 is below 1 nM.
On to `Cc1c(-c2ncnn2-c2ccc(C#N)cc2)n(C(=O)NC2CCCC2)c(=O)n1-c1cccc(C(F)(F)F)c1` [Example 63, 5-[2-(4-Cyano-phenyl)-2H-[1,2,4]triazol-3-yl]-4-methyl-2-oxo-3-(3-trifluoromethyl-phenyl)-2,3-dihydro-imidazole-1-carboxylic acid cyclopentylamide], for which the IC50 was below 1 nM.

For orientation: IC50 means the point on the concentration scale where inhibition reaches its midpoint.
